Data from patent US20100063085A1, “METHOD OF TREATING LEARNING IMPAIRMENT IN DOWN'S SYNDROME SUBJECTS” (University Court of The University of Dundee, priority 2008, published 2010).
Where two headings read alike, the source gives them in different places.

Columns and labels:
PRAK = target: T1, PRAK (Homo sapiens, UniProt Q8IW41); assay: PRAK 33P kinase assay; format: biochemical; settings: read-out: PRAK activity as percentage of control without inhibitor; for remaining activity at 1 µM: inhibitor 1 μM; for remaining activity at 10 µM: inhibitor 10 μM
T1 sequence (Q8IW41 1-473): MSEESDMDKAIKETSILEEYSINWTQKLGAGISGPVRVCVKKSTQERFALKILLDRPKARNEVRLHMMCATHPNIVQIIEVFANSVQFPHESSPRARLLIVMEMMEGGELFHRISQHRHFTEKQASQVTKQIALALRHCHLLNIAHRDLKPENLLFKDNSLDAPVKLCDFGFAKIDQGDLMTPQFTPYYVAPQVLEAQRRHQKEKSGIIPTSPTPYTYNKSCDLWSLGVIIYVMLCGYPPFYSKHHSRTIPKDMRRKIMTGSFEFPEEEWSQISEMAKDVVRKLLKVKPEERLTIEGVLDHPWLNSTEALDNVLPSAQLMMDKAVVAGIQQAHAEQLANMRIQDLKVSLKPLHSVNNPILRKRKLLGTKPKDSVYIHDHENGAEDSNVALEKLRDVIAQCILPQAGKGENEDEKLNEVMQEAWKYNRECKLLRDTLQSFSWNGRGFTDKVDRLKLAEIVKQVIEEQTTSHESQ
Experimental: (§1) All assays (25.5 μl) were carried out at room temperature (21° C.) and were linear with respect to time and enzyme concentrations under the conditions used. Assays were performed for 30 minutes except assays for LCK and PKB which were performed for 15 minutes using Multidrop Micro reagent dispensers (Thermo Electron Corporation, Waltham, Mass. 02454, USA) in a 96-well format. The concentration of […] [γ-^33P] ATP (800 cpm/pmol) in the assays was one of three concentrations (5, 20 or 50 μM) in order to be at or below Km for ATP for the enzyme. Assays were initiated with MgATP and stopped by addition of 5 μl of 0.5M orthophosphoric acid. Assays were then harvested onto P81 filterplates using a unifilter harvester (PerkinElmer, Boston, Mass. 02118, USA), with a wash buffer of 50 mM orthophosphoric acid. Filterplates were then air dried overnight. 10 μl of Microscint O was added per well prior to counting for radioactivity.
(§2) MKK1, JNK/SAPK1c, SAPK2a/p38, SAPK2b/p38β2, SAPK3/p38γ, SAPK4/p38δ, MAPK2/ERK2, MAPKAP-K1β, MAPKAP-K2, MSK1, PRAK, PKA, PKCα, PDK1, SGK, p70S6K, GSK3β, ROCK-II, PRK2, AMPK, CHK1, CHK2, CK2, PHK, LCK, were assayed according to Davies et al., (Davies, S. P., Reddy, H., Caivano, M. and Cohen, P. Biochem. J. 351, 95-105, 2000.
(§3) CSK and CDK2/cyclinA, were assayed according to Bain et al. (Bain J, McLauchlan H, Elliott M, Cohen P. Biochem J. 371, 199-204, 2003., except that ATP concentrations were either 5, 20 or 50 micromolar so that they were at or below the Km for ATP. The ATP concentrations used were as follows, 5 μM for assays of MKK1, SAPK3, SAPK4, GSK3β, PRK2 CK2 20 μm for assays of JNK, SAPK2β, MAPKAP-K2, MSK1, PRAK, PKA, […], PDK1, SGK, p70S6K, ROCK-II, CHK1, CHK2, CSK, CDK2, and 50 μM for assays of SAPK2a, MAPK2/ERK2, AMPK, LCK, PHK and MAPKAP-K1β.

PKA = PKA (Homo sapiens, UniProt P17612); assay: PKA 33P kinase assay; format: biochemical; settings: read-out: PKA activity as percentage of control without inhibitor; for remaining activity at 1 µM: inhibitor 1 μM; for remaining activity at 10 µM: inhibitor 10 μM
Experimental: as §1, §2, §3

PKCa = PKCa (Homo sapiens, UniProt P17252); assay: PKCa 33P kinase assay; format: biochemical; settings: read-out: PKCa activity as percentage of control without inhibitor; for remaining activity at 1 µM: inhibitor 1 μM; for remaining activity at 10 µM: inhibitor 10 μM
Experimental: as §1, §2, §3

smMLCK = smMLCK (Homo sapiens, UniProt Q15746); assay: smMLCK 33P kinase assay; format: biochemical; settings: read-out: smMLCK activity as percentage of control without inhibitor
Experimental: as §1
smMLCK (5-20 mU) diluted in 50 mM Hepes pH 7.5, 0.1 mM EGTA, 1 mg.ml BSA, 0.1% β-mercaptoethanol is assayed against substrate peptide […] in an incubation containing 50 mM Hepes pH 7.5, 0.1 mM EGTA, 5 mM CaCl2, 10 μM calmodulin, 300 μM substrate peptide, 10 mM magnesium acetate and 0.05 mM [^33P-γ-ATP] (500-1000 cpm/pmole).

p70 S6K = p70 S6K (Homo sapiens, UniProt P23443); assay: p70 S6K 33P kinase assay; format: biochemical; settings: read-out: p70 S6K activity as percentage of control without inhibitor; for remaining activity at 1 µM: inhibitor 1 μM; for remaining activity at 10 µM: inhibitor 10 μM
Experimental: as §1, §2, §3

NEK6 = NEK6 (Homo sapiens, UniProt Q9HC98); assay: biochemical; settings: read-out: NEK6 activity as percentage of control without inhibitor
Experimental: as §1
NEK6 (5-20 mU diluted in 50 mM Tris (pH 7.5), 0.1 mM EGTA, 1 mg/ml BSA, 0.1%, β-Mercaptoethanol) is assayed against NEK6 peptide ([…]) in a final volume of 25.5 μl containing 50 mM Tris (pH 7.5), 0.1 mM EGTA, 0.01% Brij, 0.1%, β-Mercaptoethanol, NEK6 peptide (0.3 mM), 10 mM magnesium acetate and 0.05 mM [^33P- γATP](500-1000 cpm/pmole) and incubated for 30 min at room temperature.

Chain of NEK6 (Q9HC98 whole entry, species assumed): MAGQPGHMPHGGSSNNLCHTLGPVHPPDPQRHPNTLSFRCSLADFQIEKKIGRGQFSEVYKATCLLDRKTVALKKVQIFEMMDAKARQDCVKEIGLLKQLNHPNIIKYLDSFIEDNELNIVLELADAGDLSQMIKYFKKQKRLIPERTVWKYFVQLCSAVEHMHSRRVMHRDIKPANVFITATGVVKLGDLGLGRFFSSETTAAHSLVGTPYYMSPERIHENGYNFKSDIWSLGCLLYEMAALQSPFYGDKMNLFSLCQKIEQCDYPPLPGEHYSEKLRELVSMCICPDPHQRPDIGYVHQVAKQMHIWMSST
Chain of p70 S6K (P23443 whole entry): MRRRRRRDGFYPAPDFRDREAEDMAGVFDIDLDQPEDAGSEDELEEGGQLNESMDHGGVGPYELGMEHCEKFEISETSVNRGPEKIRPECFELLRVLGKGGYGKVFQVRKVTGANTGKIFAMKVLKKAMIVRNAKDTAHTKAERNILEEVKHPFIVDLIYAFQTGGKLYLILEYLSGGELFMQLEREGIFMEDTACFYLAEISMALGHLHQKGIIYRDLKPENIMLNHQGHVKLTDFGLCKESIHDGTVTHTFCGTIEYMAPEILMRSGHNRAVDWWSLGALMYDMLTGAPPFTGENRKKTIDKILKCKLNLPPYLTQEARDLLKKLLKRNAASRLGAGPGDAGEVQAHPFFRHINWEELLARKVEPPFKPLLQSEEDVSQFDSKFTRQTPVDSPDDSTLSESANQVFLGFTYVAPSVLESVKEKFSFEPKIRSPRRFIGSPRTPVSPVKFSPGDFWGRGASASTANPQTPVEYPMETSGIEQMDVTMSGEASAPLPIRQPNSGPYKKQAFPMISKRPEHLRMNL

| Compound | remaining activity at 1 µM (PRAK) | remaining activity at 10 µM (PRAK) | remaining activity at 1 µM (PKA) | remaining activity at 10 µM (PKA) | remaining activity at 1 µM (PKCa) | remaining activity at 10 µM (PKCa) | remaining activity at 1 µM (smMLCK; inhibitor 1 μM) | remaining activity at 10 µM (smMLCK; inhibitor 10 μM) | remaining activity at 1 µM (p70 S6K) | remaining activity at 10 µM (p70 S6K) | remaining activity at 1 µM (NEK6; inhibitor 1 μM) | remaining activity at 10 µM (NEK6; inhibitor 10 μM) | remaining activity at 1 µM (smMLCK) | remaining activity at 10 µM (smMLCK) | remaining activity at 1 µM (NEK6) | remaining activity at 10 µM (NEK6) |
| --- | --- | --- | --- | --- | --- | --- | --- | --- | --- | --- | --- | --- | --- | --- | --- | --- |
| COc1ccc2c3c([nH]c2c1)C(C)=NCC3 [Harmaline] | 88% | 93% | 70% | 86% | 88% | 81% | 92% | 104% | 71% | 83% | 99% | 87% | – | – | – | – |
| CC1=NCCc2c1[nH]c1cc(O)ccc21 [Harmalol] | 84% | 78% | 90% | 75% | 109% | 78% | 76% | 71% | 95% | 69% | 94% | 92% | – | – | – | – |
| COc1ccc2c(c1)[nH]c1c(C)nccc12 [Harmine] | 81% | 75% | 82% | 92% | 96% | 101% | – | – | 90% | 93% | – | – | 88% | 76% | 96% | 99% |
